For data set [1] the following is noted: apomorphine hydrochloride studies reported in the literature; cited from earlier work.
Data set [2] has as its system systemic arterial pressure. The data set can be described thus: Effect of apomorphine on systemic arterial pressure. It is filed as in vivo, New Zealand White female rabbits. The settings on record: intravenous, female rabbits, FIG. 3. As for the experimental part:
(§1) New Zealand White female rabbits (n=6, about 3.5-4 kg) were anesthetized with intravenous administration of pentobarbital. A 20 gauge angiocatheter was placed into the right carotid artery for measurement of systemic arterial pressure. A midline abdominal incision was made and the pelvic nerve branch to the vagina and clitoris was dissected. Nerve stimulation was performed with a Harvard subminiature electrode placed around the pelvic nerve branch to the vagina and clitoris and connected to a Grass SD-9 stimulator. Clitoral intracavernosal and vaginal wall blood flow were measured with a laser Doppler flow probe placed directly into the clitoral cavernosal tissue or into the vaginal wall and connected to a laser Doppler flowmeter.
(§2) Basal arterial blood pressure and clitoral and vaginal blood flow were each recorded before and then after stimulation of the pelvic nerve branch to the clitoris and vagina.

Data set [3] concerns sexual readiness (clitoral erectogenesis and vaginal engorgement on sexual stimulation). Briefly: Extrapolation of rabbit optimum dose to human females (sexual readiness dose).
Data set [4] relates to clitoral intracavernosal blood flow. Briefly: Effect of apomorphine on clitoral intracavernosal blood flow (laser Doppler flow) before and after pelvic nerve stimulation. Format: in vivo, New Zealand White female rabbits. The settings on record: intravenous, female rabbits. The protocol: as §1, §2
The next data set concerns penile erection. Particulars: cited from earlier work.
The next data set has as its system vaginal wall blood flow. Briefly: Effect of apomorphine on vaginal wall blood flow (laser Doppler flow) before and after pelvic nerve stimulation. Format: in vivo, New Zealand White female rabbits. The settings on record: female rabbits. As for the experimental part: as §1, §2
Data set [5] relates to vaginal and clitoral blood flow. The data set can be described thus: Optimum dose for vasculogenic effect on nerve stimulated vaginal and clitoral blood flow. Format: in vivo, New Zealand White female rabbits. Particulars: female rabbits. The protocol:
as §1, §2

Another data set concerns emesis. Particulars: subcutaneous, about a 5-milligram dose; cited from earlier work.

The structures appear in SMILES notation. “Also recorded” adds a separate entry of the source.

Regarding `CN1CCc2cccc3c2[C@H]1Cc1ccc(O)c(O)c1-3` [apomorphine, Apomorphine], the “pharmacokinetics, females versus males” value in data set [1] is “the same for both females and males”. In addition, the diastolic arterial pressure result in data set [2] (increasing doses 0.05-0.4 mg/kg) is “concentration dependent moderate decrease”. Moreover, the systolic arterial pressure entry in data set [2] is given as “minimal effect”. In data set [3] (correlated from rabbit intravenous dosage (about 1/10)), the “optimum dosage for human females” value was about 10 µg/kg. The “effective dose in a human female” value in data set [3] (correlated from rabbit intravenous dose (about 1/10)) is on record as “about 0.01 mg/kg”. Besides, the “significant sexual readiness dose” value in data set [3] (sublingual tablet, women, about 70 kilograms) is on record as “about 76 μg/kg”. Moreover, the “significant sexual readiness dosage” value in data set [3] (sublingual, 70 kg weight woman) is reported as “about 76 micrograms/kg”. Also, in data set [4] (0.05 mg/kg to 0.2 mg/kg, FIG. 1), the “nerve stimulation-induced peak clitoral intracavernosal blood flow, concentration dependence” value is on record as “concentration dependent increase”. The “nerve stimulation-induced peak clitoral intracavernosal blood flow, significance vs before apomorphine administration” value in data set [4] (0.1 mg/kg, 0.2 mg/kg and 0.3 mg/kg, FIG. 1) is recorded as “statistically significant increase; also recorded: significant increase in nerve stimulation-induced peak clitoral intracavernosal blood flow”. The “effect on baseline clitoral intracavernosal blood flow” value in data set [4] (before nerve stimulation) was “did not affect baseline clitoral intracavernosal blood flow”. In addition, the “erectogenic effect in males” value in the data set on penile erection (males, research and clinical studies) is reported as “erectogenic effect manifested by penile erection”. Besides, in the data set on penile erection (oral, psychogenic patient, U.S. Pat. No. 5,624,677 and Heaton et al.), the “induction of erection on oral administration” value is on record as “can be used to induce an erection”. Besides, the “plasma concentration maintained for stimulation sufficient to cause an erection” value with penile erection (sublingual, patient) is given as “no more than 5.5 ng/ml”. For the same compound, in the data set on vaginal wall blood flow (0.4 mg/kg), the “effect on nerve stimulation-induced increase in vaginal wall blood flow” value was “adverse effect”. Moreover, in the data set with vaginal wall blood flow (intravenous, 0.05 and 0.2 mg/kg, FIG. 2), the “nerve stimulation-induced peak vaginal wall blood flow, concentration dependence” value is “concentration dependent increase”. Also, the “nerve stimulation-induced peak vaginal wall blood flow, significance vs before apomorphine administration” value in the data set with vaginal wall blood flow (intravenous, 0.1 and 0.2 mg/kg, FIG. 2) was “statistically significant increase; also recorded: significant increase in vaginal wall blood flow”. For the same compound, the “effect on basal vaginal wall blood flow” value with vaginal wall blood flow (intravenous, before nerve stimulation) was “did not affect basal vaginal wall blood flow”. Further, in data set [5] (body weight), the “optimum intravenous dosage for vasculogenic effect on nerve stimulated vaginal and clitoral blood flow” value was “about 100 μg/kg”. The optimal dose result in data set [5] (intravenous) is given as “about 0.1 mg/kg”. Besides, the emetic effect entry in the data set with emesis is listed as “emetic”.

Source of the values: patent publication US6193992A, “Female sexual dysfunction treatment” (Pentech Pharmaceuticals, Inc., priority 1999, dated 2001).
